In ChEMBL document CHEMBL4421722, “Inhibitors of protein prenyltransferases” (2013):
Calls of active or inactive are those of the source. The rule behind the calls is not given here.

What was measured:
[1] = target: Protein farnesyltransferase (Homo sapiens) (UniProt P49354+P49356); experiment: Inhibition of FTase in HEK293 cells assessed as reduction in H-ras farnesylation at […] 10 uM incubated for 48 hrs by SDS-PAGE and immunoblot analysis; assay type: cell-based
[2] = Inhibition of rat recombinant geranylgeranyltransferase type I expressed in Escherichia coli assessed as reduction in geranylgeranylation of RhoA incubated for 30 mins in presence of [3H]GGPP by scintillation counting assay relative to control
[3] = tested on: HEK293; experiment: Inhibition of geranylgeranyltransferase type I in HEK293 cells expressing Myc-HA-tagged Rheb-WT assessed as effect on unprenylated Rap1 accumulation at 5 to 20 uM incubated for 48 hrs by SDS-PAGE and immunoblot analysis; assay type: cell-based; conditions: Homo sapiens
[4] = target: T1, Geranylgeranyl transferase type-2 (Homo sapiens) (UniProt P53611+Q92696); experiment: Inhibition of RabGGTase in HEK293 cells assessed as reduction in geranylgeranylation of Rab5b protein at 20 uM incubated for 48 hrs by SDS-PAGE and immunoblot analysis; assay type: cell-based
[5] = target: Protein farnesyltransferase (Rattus norvegicus, UniProt Q02293+Q04631); experiment: Inhibition of rat recombinant FTase alpha/beta expressed in Escherichia coli using K-Ras4B as a substrate as and [3H]farnesyl pyrophosphate incubated for 30 mins by scintillation counting assay
[6] = target: T1, Geranylgeranyl transferase type-2 (Homo sapiens); experiment: Inhibition of RabGGTase in HEK293 cells assessed as reduction in geranylgeranylation of Rab5b protein at 5 to 20 uM incubated for 48 hrs by SDS-PAGE and immunoblot analysis; assay type: cell-based
[7] = target: T2, Geranylgeranyl transferase type-2 (Homo sapiens, UniProt P53611+Q92696); experiment: Competitive type inhibition of RabGGTase (unknown origin) using varying Rab7 as substrate protein and fixed [3H]geranylgeranyl pyrophosphate incubated for 20 mins by scintillation counting assay; assay type: protein-complex assay
T2 sequence (P53611 whole entry): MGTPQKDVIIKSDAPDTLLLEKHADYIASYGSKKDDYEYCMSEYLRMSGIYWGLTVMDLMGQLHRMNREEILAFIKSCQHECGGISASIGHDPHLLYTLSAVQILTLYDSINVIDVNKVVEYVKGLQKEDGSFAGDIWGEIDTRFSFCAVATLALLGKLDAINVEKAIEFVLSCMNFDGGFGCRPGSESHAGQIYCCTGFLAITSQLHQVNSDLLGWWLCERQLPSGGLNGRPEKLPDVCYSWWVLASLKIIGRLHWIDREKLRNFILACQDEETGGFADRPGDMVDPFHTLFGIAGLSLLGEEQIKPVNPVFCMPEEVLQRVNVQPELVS
T2 sequence (Q92696 whole entry): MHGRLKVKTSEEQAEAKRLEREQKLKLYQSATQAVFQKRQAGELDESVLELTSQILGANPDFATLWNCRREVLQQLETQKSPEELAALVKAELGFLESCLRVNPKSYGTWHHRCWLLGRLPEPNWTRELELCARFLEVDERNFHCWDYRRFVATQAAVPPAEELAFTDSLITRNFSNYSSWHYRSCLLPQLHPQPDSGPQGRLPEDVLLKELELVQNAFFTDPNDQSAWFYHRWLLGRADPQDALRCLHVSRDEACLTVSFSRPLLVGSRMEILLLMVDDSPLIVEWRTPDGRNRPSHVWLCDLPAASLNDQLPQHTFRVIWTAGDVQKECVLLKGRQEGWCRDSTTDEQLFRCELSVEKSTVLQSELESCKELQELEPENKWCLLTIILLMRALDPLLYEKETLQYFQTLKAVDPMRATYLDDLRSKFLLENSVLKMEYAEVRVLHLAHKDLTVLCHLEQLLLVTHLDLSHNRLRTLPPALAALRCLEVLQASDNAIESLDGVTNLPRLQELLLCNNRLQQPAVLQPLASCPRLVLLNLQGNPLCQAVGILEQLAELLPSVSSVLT

[8] = target: T1, Geranylgeranyl transferase type-2 (Homo sapiens); experiment: Uncompetitive type inhibition of RabGGTase (unknown origin) using fixed Rab7 as substrate protein and varying [3H]geranylgeranyl pyrophosphate incubated for 20 mins by scintillation counting assay; assay type: protein-complex assay
[9] = target: T2, Geranylgeranyl transferase type-2; experiment: Inhibition of RabGGTase (unknown origin) using YPTI as substrate protein and [3H]geranylgeranyl pyrophosphate incubated for 20 mins by scintillation counting assay; assay type: protein-complex assay
[10] = target: T1, Geranylgeranyl transferase type-2 (Homo sapiens); experiment: Inhibition of RabGGTase in HEK293 cells assessed as increase in Rab5b protein in soluble fraction at 5 to 20 uM incubated for 48 hrs by SDS-PAGE and immunoblot analysis; assay type: cell-based
[11] = species on record: Rattus norvegicus; experiment: Uncompetitive inhibition of rat recombinant geranylgeranyltransferase type I expressed in Escherichia coli assessed as reduction in geranylgeranylation of RhoA incubated for 30 mins in presence of varying level of [3H]GGPP and fixed RhoA levels by scintillation counting assay by Michaelis-Menten plot analysis
[12] = tested on: HEK293; experiment: Inhibition of geranylgeranyltransferase type I in HEK293 cells expressing Myc-HA-tagged Rheb-WT assessed as effect on unprenylated Rap1 accumulation at 3.1 to 25 uM incubated for 48 hrs by SDS-PAGE and immunoblot analysis; assay type: cell-based; conditions: Homo sapiens
[13] = species on record: Rattus norvegicus; experiment: Competitive inhibition of rat recombinant geranylgeranyltransferase type I expressed in Escherichia coli assessed as reduction in geranylgeranylation of RhoA incubated for 30 mins in presence of fixed level of [3H]GGPP and varying RhoA levels by scintillation counting assay relative to control
[14] = tested on: K562; experiment: Induction of cell cycle arrest in human K562 cells assessed as accumulation at G1 phase up to […] incubated for 48 hrs by flow cytometry; assay type: functional, cell-based
[15] = species on record: Rattus norvegicus; experiment: (§1) Competitive inhibition of rat recombinant geranylgeranyltransferase type I expressed in Escherichia coli assessed as reduction in geranylgeranylation of RhoA incubated for 30 mins in presence of varying level of [3H]GGPP and fixed RhoA levels by scintillation counting assay relative to control
[16] = target: Protein farnesyltransferase (Rattus norvegicus) (UniProt Q04631+Q02293); experiment: Inhibition of rat recombinant FTase alpha/beta expressed in Escherichia coli at 50000 nM using K-Ras4B as a substrate as and [3H]farnesyl pyrophosphate incubated for 30 mins by scintillation counting assay
[17] = tested on: K562; experiment: Antiproliferative activity against human K562 cells assessed as inhibition of cell proliferation incubated for 72 hrs by CCK8 assay; assay type: functional, cell-based
[18] = species on record: Rattus norvegicus; experiment: Inhibition of rat recombinant geranylgeranyltransferase type I expressed in Escherichia coli assessed as residual enzyme activity for geranylgeranylation of K-Ras4B at 50 uM incubated for 30 mins in presence of [3H]GGPP by scintillation counting assay relative to control
[19] = target: T1, Geranylgeranyl transferase type-2 (Homo sapiens); experiment: Inhibition of RabGGTase (unknown origin) at 50000 nM using YPTI as substrate protein and [3H]geranylgeranyl pyrophosphate incubated for 20 mins by scintillation counting assay; assay type: protein-complex assay
[20] = species on record: Rattus norvegicus; experiment: Inhibition of rat recombinant geranylgeranyltransferase type I expressed in Escherichia coli assessed as residual enzyme activity for geranylgeranylation of RhoA at 50 uM incubated for 30 mins in presence of [3H]GGPP by scintillation counting assay relative to control
[21] = tested on: HEK293; experiment: Inhibition of geranylgeranyltransferase type I in HEK293 cells expressing Myc-HA-tagged Rheb-CVSL assessed as effect on unprenylated Rap1 accumulation at 12.5 to 50 uM incubated for 48 hrs by SDS-PAGE and immunoblot analysis; assay type: cell-based; conditions: Homo sapiens
[22] = tested on: Jurkat; experiment: Antiproliferative activity against human Jurkat cells assessed as inhibition of cell proliferation incubated for 72 hrs by CCK8 assay; assay type: functional, cell-based
[23] = target: T1, Geranylgeranyl transferase type-2 (Homo sapiens); experiment: Inhibition of RabGGTase (unknown origin) up to 10000 nM using YPTI as substrate protein and [3H]geranylgeranyl pyrophosphate incubated for 20 mins by scintillation counting assay; assay type: protein-complex assay
[24] = tested on: PANC-1; experiment: Antiproliferative activity against human PANC1 cells assessed as inhibition of cell proliferation at 12.5 uM incubated for 72 hrs by CCK8 assay; assay type: functional, cell-based
[25] = Inhibition of rat recombinant geranylgeranyltransferase type I expressed in Escherichia coli assessed as reduction in geranylgeranylation of K-Ras4B incubated for 30 mins in presence of [3H]GGPP by scintillation counting assay
[26] = tested on: Jurkat; experiment: Antiproliferative activity against human Jurkat cells assessed as inhibition of cell proliferation at 12.5 uM incubated for 72 hrs by CCK8 assay; assay type: functional, cell-based
[27] = tested on: HEK293; experiment: Inhibition of geranylgeranyltransferase type I in HEK293 cells expressing Myc-HA-tagged Rheb-WT assessed as effect on unprenylated Rap1 accumulation at 2.5 uM incubated for 48 hrs by SDS-PAGE and immunoblot analysis; assay type: cell-based; conditions: Homo sapiens
[28] = tested on: HEK293; experiment: Inhibition of geranylgeranyltransferase type I in HEK293 cells expressing Myc-HA-tagged Rheb-WT assessed as effect on unprenylated Rap1 accumulation at 1.25 to 10 uM incubated for 48 hrs by SDS-PAGE and immunoblot analysis; assay type: cell-based; conditions: Homo sapiens
[29] = tested on: HEK293; experiment: Inhibition of geranylgeranyltransferase type I in HEK293 cells expressing Myc-HA-tagged Rheb-CVSL assessed as effect on unprenylated Rap1 accumulation at 5 to 10 uM incubated for 48 hrs by SDS-PAGE and immunoblot analysis; assay type: cell-based; conditions: Homo sapiens
[30] = Antiproliferative activity against human SEMK2 cells assessed as inhibition of cell proliferation incubated for 6 days by CCK8 assay; assay type: functional, cell-based; conditions: SEMK2, 144 h
[31] = tested on: ASPC1; experiment: Antiproliferative activity against human AsPC1 cells assessed as inhibition of cell proliferation incubated for 6 days by CCK8 assay; assay type: functional, cell-based; conditions: ASPC1, 144 h
[32] = tested on: K562; experiment: Induction of cell cycle arrest in human K562 cells assessed as reduction in accumulation at S phase incubated for 48 hrs by flow cytometry; assay type: functional, cell-based
[33] = tested on: K562; experiment: Induction of cell cycle arrest in human K562 cells assessed as accumulation at G1 phase incubated for 48 hrs by flow cytometry; assay type: functional, cell-based
[34] = as §1
[35] = tested on: MCF7; experiment: Antiproliferative activity against human MCF7 cells assessed as inhibition of cell proliferation incubated for 6 days by CCK8 assay; assay type: functional, cell-based
[36] = tested on: MIA PaCa-2; experiment: Antiproliferative activity against human MIAPaCa2 cells assessed as inhibition of cell proliferation incubated for 72 hrs by CCK8 assay; assay type: functional, cell-based; conditions: MIA PaCa-2, 72 h
[37] = tested on: CFPAC-1; experiment: Antiproliferative activity against human CFPAC-1 cells assessed as inhibition of cell proliferation incubated for 72 hrs by CCK8 assay; assay type: functional, cell-based; conditions: CFPAC-1, 72 h
[38] = tested on: PANC-1; experiment: Antiproliferative activity against human PANC1 cells assessed as inhibition of cell proliferation incubated for 72 hrs by CCK8 assay; assay type: functional, cell-based; conditions: PANC-1, 72 h
[39] = tested on: Capan-2; experiment: Antiproliferative activity against human Capan2 cells assessed as inhibition of cell proliferation incubated for 72 hrs by CCK8 assay; assay type: functional, cell-based; conditions: Capan-2, 72 h
[40] = tested on: HPAC; experiment: Antiproliferative activity against human HPAC cells assessed as inhibition of cell proliferation incubated for 72 hrs by CCK8 assay; assay type: functional, cell-based
[41] = tested on: BT-474; experiment: Antiproliferative activity against human BT474 cells assessed as inhibition of cell proliferation incubated for 72 hrs by CCK8 assay; assay type: functional, cell-based; conditions: BT-474, 72 h

CCCCCCS[C@H]1[C@@H](C(=O)O)[C@H](c2ccc(Br)cc2)N(S(=O)(=O)c2ccc(C)cc2)[C@@H]1CCC
inhibition [1]: inactive | IC50 [2]: > 50 µM | inhibition [3]: inactive | inhibition [4]: Active | IC50 [5]: > 100 µM | inhibition [6]: Active | Ki [7]: 1.36 µM | inhibition [8]: Active | IC50 [9]: 2.1 µM | inhibition [10]: Active

Cc1ccccc1S(=O)(=O)N1[C@@H](c2cccc(Cl)c2)C(C(=O)O)=CC[C@H]1c1ccc(Cl)cc1
inhibition [11]: Active | inhibition [12]: Active | inhibition [13]: Active | Activity [14]: Active | inhibition [15]: inactive | IC50 [2]: 0.31 to 0.313 µM | inhibition [16]: inactive | inhibition [17]: Active | Activity [18]: 14.7 to 41.7% | inhibition [19]: inactive | Activity [20]: 7.5 to 24.8% | inhibition [21]: Active | GI50 [22]: 20 µM

Cc1ccccc1S(=O)(=O)N1[C@@H](c2ccc(Cl)cc2)C(C(=O)O)=C[C@H]1C(C)(C)C (relative stereo)
inhibition [11]: Active | inhibition [12]: Active | inhibition [13]: Active | inhibition [15]: inactive | IC50 [2]: 0.5 to 2.5 µM | inhibition [23]: Active | inhibition [16]: inactive | growth inhibition (GI) [24]: Active | IC50 [25]: 2 µM | Activity [18]: 13.3% | Activity [20]: 5.3% | growth inhibition (GI) [26]: Active | inhibition [21]: Active | inhibition [27]: inactive

COC(=O)[C@H](Cc1ccccc1)NCC(=O)OCC1=C[C@@H](C(C)(C)C)N(S(=O)(=O)c2ccccc2C)[C@H]1c1ccc(Cl)cc1
inhibition [28]: Active | inhibition [29]: Active

Cc1ccccc1S(=O)(=O)N1[C@@H](c2ccc(Cl)cc2)C(COCC(=O)N[C@@H](Cc2ccccc2)C(N)=O)=C[C@H]1C(C)(C)C
IC50 [30]: 14.1 µM | IC50 [31]: > 20 µM | Activity [32]: Dose-dependent effect | Activity [33]: Dose-dependent effect | IC50 [34]: 12.5 µM | inhibition [35]: Dose-dependent effect | IC50 ([35]; MCF7, 144 h): 6.4 µM | IC50 [36]: 13.9 µM | IC50 [37]: 8.1 µM | IC50 [38]: 12.6 µM | IC50 [39]: 11.1 µM | IC50 [40]: 11.7 µM | IC50 [41]: 11.6 µM | IC50 [22]: 1.3 µM
